Values joined by “and” are separate entries in the source; they are usually repeats but may differ in a detail not shown here. Equal entries are not always repeated.
Columns and labels:
[1] = system: hypothalamus–pituitary–adrenal axis hormones; test: Hormones of the HPA axis: difference from baseline; assay type: in vivo, human
Method: Safety and tolerability of BI 187004 were assessed in a descriptive way using the following investigations: recording of adverse events, clinical laboratory parameters (haematology, coagulation, enzymes, substrates, electrolytes, hormones, and urinalysis), vital signs (blood pressure, puls rate), 12-lead ECG (electrocardiogram) with special attention to QTc prolongation, and physical examination (occurrence of findings).

[2] = Urinary excretion of BI 187004 (LC–MS/MS); assay type: in vivo, human
Excerpt: For each accepted run, the acceptance criteria for the calibration standards and quality controls were met.

HPA axis = test: Total urinary corticosteroid excretion (aTHF + THF + UFF + UFE + THE); settings: for Total corticosteroids 0 – 24h (day 1) gMean (gCV [%]) / Total corticosteroids % of baseline 0 – 24h (day 1)/-24 – 0h (day -1) gMean (gCV): urine; for Total corticosteroids placebo corrected % change from baseline, adjusted gMean (90% CI) / Total corticosteroids placebo corrected % of baseline, adjusted gMean (90% CI): urine 0–24 h, ANCOVA
Method: The urinary samples for determination of urinary free cortisol (UFF), urinary free cortisone (UFE), urinary total cortisol (UTF), urinary total cortisone (UTE), and their metabolites 5alpha- or allo-tetrahydrocortisol (aTHF), 5beta-tetrahydrocortisol (THF), and tetrahydrocortisone (THE) were analyzed using a validated LC–MS/MS method.
The placebo corrected percentage change from baseline of the data shown in Supplementary Table 1 and 2 was analyzed statistically by an ANCOVA model with baseline as covariate on the logarithmic scale.

SMILES: N#Cc1ccc2c(c1)[C@H]1CCCN(C(=O)c3ccc4[nH]cnc4c3)[C@H]1C2 [BI 187004]
- Androstenedione mean difference from baseline ([1]; 160 mg single oral dose, 24:00): 2.6 nmol/L
- Cortisol mean difference from baseline ([1]; 160 mg single oral dose, 24:00): -49.2 nmol/L
- DHEA-s mean difference from baseline ([1]; 160 mg single oral dose, 24:00): 1.6 µmol/L
- SHBG mean difference from baseline ([1]; 160 mg single oral dose, 24:00): 1.9 nmol/L
- Total Testosterone mean difference from baseline ([1]; 160 mg single oral dose, 24:00): 1.0 nmol/L
- ACTH mean difference from baseline ([1]; 160 mg single oral dose, 96:00): 0.05 pmol/L
- Androstenedione mean difference from baseline ([1]; 160 mg single oral dose, 96:00): 1.5 nmol/L
- Cortisol mean difference from baseline ([1]; 160 mg single oral dose, 96:00): -69.9 nmol/L
- DHEA-s mean difference from baseline ([1]; 160 mg single oral dose, 96:00): 2.2 µmol/L
- SHBG mean difference from baseline ([1]; 160 mg single oral dose, 96:00): -0.8 nmol/L
- Total Testosterone mean difference from baseline ([1]; 160 mg single oral dose, 96:00): 2.4 nmol/L
- ACTH mean difference from baseline ([1]; 240 mg single oral dose, 24:00): 0.87 pmol/L
- Androstenedione mean difference from baseline ([1]; 240 mg single oral dose, 24:00): 5.0 nmol/L
- Cortisol mean difference from baseline ([1]; 240 mg single oral dose, 24:00): -7.3 nmol/L
- DHEA-s mean difference from baseline ([1]; 240 mg single oral dose, 24:00): 1.6 µmol/L
- SHBG mean difference from baseline ([1]; 240 mg single oral dose, 24:00): 2.3 nmol/L
- Total Testosterone mean difference from baseline ([1]; 240 mg single oral dose, 24:00): -2.8 nmol/L
- ACTH mean difference from baseline ([1]; 240 mg single oral dose, 96:00): -0.27 pmol/L
- Androstenedione mean difference from baseline ([1]; 240 mg single oral dose, 96:00): 2.7 nmol/L
- Cortisol mean difference from baseline ([1]; 240 mg single oral dose, 96:00): -5.1 nmol/L
- DHEA-s mean difference from baseline ([1]; 240 mg single oral dose, 96:00): 2.3 µmol/L
- SHBG mean difference from baseline ([1]; 240 mg single oral dose, 96:00): 2.5 nmol/L
- Total Testosterone mean difference from baseline ([1]; 240 mg single oral dose, 96:00): -2.4 nmol/L
- ACTH mean difference from baseline ([1]; 360 mg single oral dose, 24:00): 1.30 pmol/L
- Androstenedione mean difference from baseline ([1]; 360 mg single oral dose, 24:00): 3.2 nmol/L
- Cortisol mean difference from baseline ([1]; 360 mg single oral dose, 24:00): -40.0 nmol/L
- DHEA-s mean difference from baseline ([1]; 360 mg single oral dose, 24:00): 1.2 µmol/L
- SHBG mean difference from baseline ([1]; 360 mg single oral dose, 24:00): 0.9 nmol/L
- Total Testosterone mean difference from baseline ([1]; 360 mg single oral dose, 24:00): -0.3 nmol/L
- ACTH mean difference from baseline ([1]; 360 mg single oral dose, 96:00): 0.38 pmol/L
- Androstenedione mean difference from baseline ([1]; 360 mg single oral dose, 96:00): -0.3 nmol/L
- Cortisol mean difference from baseline ([1]; 360 mg single oral dose, 96:00): -132.9 nmol/L
- DHEA-s mean difference from baseline ([1]; 360 mg single oral dose, 96:00): 1.6 µmol/L
- SHBG mean difference from baseline ([1]; 360 mg single oral dose, 96:00): -2.2 nmol/L
- Total Testosterone mean difference from baseline ([1]; 360 mg single oral dose, 96:00): 0.7 nmol/L
- Fraction of dose excreted in urine (renal excretion), range across dose groups ([2]; 0–72 h collection interval): 3–5% and 3.00–4.93%
- fe0-72 h (fraction eliminated in urine from 0 to 72 h) ([2]; 5 mg single oral dose): 3.00%
- fe0-72 h (fraction eliminated in urine from 0 to 72 h) ([2]; 10 mg single oral dose): 4.03%
- fe0-72 h (fraction eliminated in urine from 0 to 72 h) ([2]; 20 mg single oral dose): 4.93%
- fe0-72 h (fraction eliminated in urine from 0 to 72 h) ([2]; 40 mg single oral dose): 4.21%
- fe0-72 h (fraction eliminated in urine from 0 to 72 h) ([2]; 80 mg single oral dose): 4.55%
- fe0-72 h (fraction eliminated in urine from 0 to 72 h) ([2]; 160 mg single oral dose): 4.75%
- fe0-72 h (fraction eliminated in urine from 0 to 72 h) ([2]; 240 mg single oral dose): 4.88%
- fe0-72 h (fraction eliminated in urine from 0 to 72 h) ([2]; 360 mg single oral dose): 4.25%
- Total corticosteroids 0 – 24h (day 1) gMean (gCV [%]) (HPA axis; 2.5 mg): 16067.0 (18.128) μg
- Total corticosteroids % of baseline 0 – 24h (day 1)/-24 – 0h (day -1) gMean (gCV) (HPA axis; 2.5 mg): 161.3 (44.4) %
- Total corticosteroids placebo corrected % change from baseline, adjusted gMean (90% CI) (HPA axis; 2.5 mg): 30.3 (11.5, 52.2) 0.0062%
- Total corticosteroids placebo corrected % of baseline, adjusted gMean (90% CI) (HPA axis; 2.5 mg): 130.3% and 130.3 (111.5, 152.2) %
- Total corticosteroids 0 – 24h (day 1) gMean (gCV [%]) (HPA axis; 5 mg): 24324.0 (23.620) μg
- Total corticosteroids % of baseline 0 – 24h (day 1)/-24 – 0h (day -1) gMean (gCV) (HPA axis; 5 mg): 179.9 (21.8) %
- Total corticosteroids placebo corrected % change from baseline, adjusted gMean (90% CI) (HPA axis; 5 mg): 72.1 (47.7, 100.6) <0.0001%
- Total corticosteroids placebo corrected % of baseline, adjusted gMean (90% CI) (HPA axis; 5 mg): 172.1 (147.7, 200.6) %
- Total corticosteroids 0 – 24h (day 1) gMean (gCV [%]) (HPA axis; 10 mg): 23965.4 (24.142) μg
- Total corticosteroids % of baseline 0 – 24h (day 1)/-24 – 0h (day -1) gMean (gCV) (HPA axis; 10 mg): 178.1 (24.5) %
- Total corticosteroids placebo corrected % change from baseline, adjusted gMean (90% CI) (HPA axis; 10 mg): 69.9 (45.8, 98.1) <0.0001%
- Total corticosteroids placebo corrected % of baseline, adjusted gMean (90% CI) (HPA axis; 10 mg): 169.9 (145.8, 198.1) %
- Total corticosteroids 0 – 24h (day 1) gMean (gCV [%]) (HPA axis; 20 mg): 27240.6 (5.276) μg
- Total corticosteroids % of baseline 0 – 24h (day 1)/-24 – 0h (day -1) gMean (gCV) (HPA axis; 20 mg): 174.7 (31.3) %
- Total corticosteroids placebo corrected % change from baseline, adjusted gMean (90% CI) (HPA axis; 20 mg): 80.9 (54.9, 111.2) <0.0001%
- Total corticosteroids placebo corrected % of baseline, adjusted gMean (90% CI) (HPA axis; 20 mg): 180.9 (154.9, 211.2) %
- Total corticosteroids 0 – 24h (day 1) gMean (gCV [%]) (HPA axis; 40 mg): 24484.7 (17.661) μg
- Total corticosteroids % of baseline 0 – 24h (day 1)/-24 – 0h (day -1) gMean (gCV) (HPA axis; 40 mg): 213.9 (24.4) %
- Total corticosteroids placebo corrected % change from baseline, adjusted gMean (90% CI) (HPA axis; 40 mg): 86.6 (60.0, 117.5) <0.0001%
- Total corticosteroids placebo corrected % of baseline, adjusted gMean (90% CI) (HPA axis; 40 mg): 186.6 (160.0, 217.5) %
- Total corticosteroids 0 – 24h (day 1) gMean (gCV [%]) (HPA axis; 80 mg): 29884.0 (24.608) μg
- Total corticosteroids % of baseline 0 – 24h (day 1)/-24 – 0h (day -1) gMean (gCV) (HPA axis; 80 mg): 189.7 (16.0) %
- Total corticosteroids placebo corrected % change from baseline, adjusted gMean (90% CI) (HPA axis; 80 mg): 97.5 (69.1, 130.7) <0.0001%
- Total corticosteroids placebo corrected % of baseline, adjusted gMean (90% CI) (HPA axis; 80 mg): 197.5% and 197.5 (169.1, 230.7) %
- Total corticosteroids 0 – 24h (day 1) gMean (gCV [%]) (HPA axis; 160 mg): 25409.0 (28.223) μg
- Total corticosteroids % of baseline 0 – 24h (day 1)/-24 – 0h (day -1) gMean (gCV) (HPA axis; 160 mg): 171.9 (13.1) %
- Total corticosteroids placebo corrected % change from baseline, adjusted gMean (90% CI) (HPA axis; 160 mg): 72.8 (48.1, 101.6) <0.0001%
- Total corticosteroids placebo corrected % of baseline, adjusted gMean (90% CI) (HPA axis; 160 mg): 172.8 (148.1, 201.6) %
- Total corticosteroids 0 – 24h (day 1) gMean (gCV [%]) (HPA axis; 240 mg): 26872.4 (19.594) μg
- Total corticosteroids % of baseline 0 – 24h (day 1)/-24 – 0h (day -1) gMean (gCV) (HPA axis; 240 mg): 174.5 (17.4) %
- Total corticosteroids placebo corrected % change from baseline, adjusted gMean (90% CI) (HPA axis; 240 mg): 79.4 (53.7, 109.5) <0.0001%
- Total corticosteroids placebo corrected % of baseline, adjusted gMean (90% CI) (HPA axis; 240 mg): 179.4 (153.7, 209.5) %
- Total corticosteroids 0 – 24h (day 1) gMean (gCV [%]) (HPA axis; 360 mg): 26152.2 (30.046) μg
- Total corticosteroids % of baseline 0 – 24h (day 1)/-24 – 0h (day -1) gMean (gCV) (HPA axis; 360 mg): 168.0 (28.0) %
- Total corticosteroids placebo corrected % change from baseline, adjusted gMean (90% CI) (HPA axis; 360 mg): 73.8 (48.8, 102.9) <0.0001%
- Total corticosteroids placebo corrected % of baseline, adjusted gMean (90% CI) (HPA axis; 360 mg): 173.8 (148.8, 202.9) %
- Total urinary corticosteroid excretion (sum of UFF, UFE, aTHF, THF and THE), maximum across doses (HPA axis; placebo corrected % of baseline): up to 197.5%
